{
  "source": "patent US20150031674A1",
  "about": "“SERINE/THREONINE KINASE INHIBITORS” (GENENTECH, INC., priority 2013, published 2015)",
  "biological_target": "human recombinant PAK1-KD protein (Homo sapiens, UniProt Q13153)",
  "sequence (Q13153 270-521 limits assumed)": "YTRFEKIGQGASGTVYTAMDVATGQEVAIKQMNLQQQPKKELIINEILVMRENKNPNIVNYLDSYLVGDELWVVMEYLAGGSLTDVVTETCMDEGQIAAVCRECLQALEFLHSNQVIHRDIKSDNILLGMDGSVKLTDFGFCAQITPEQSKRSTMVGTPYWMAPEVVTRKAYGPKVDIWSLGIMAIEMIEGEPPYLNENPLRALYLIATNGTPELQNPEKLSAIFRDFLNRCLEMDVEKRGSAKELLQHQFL",
  "experiment": "PAK1-KD (Kinase Domain) IC50 Zlyte Assay (FRET peptide substrate phosphorylation)",
  "details": "Z'-LYTE, Biological Example 1",
  "text": "PAK1-KD (Kinase Domain) IC50 Zlyte Assay Protocol\nActivity of human recombinant PAK1-KD protein may be assessed in vitro by assay of the phosphorylation of a FRET peptide substrate. Catalytically active human recombinant PAK1-KD protein is obtained by purification from Tini cells infected with a human PAK1-KD recombinant baculovirus expression vector.\nThe activity/inhibition of PAK1-KD was estimated by measuring the phosphorylation of a FRET peptide substrate (Ser/Thr19) labeled with Coumarin and Fluorescein using Z′-LYTE™ assay (Invitrogen). The peptide substrate is a consensus sequence ([sequence]) based on various PAK substrates reported in the scientific literature. […] Incubations were carried out at 22° C. in black polypropylene 384-well plates (Corning Costar).",
  "data": [
    {"smiles": "Cc1cccc(-c2ccc(-c3cc4cnc(NCC(F)F)nc4n(CCC4CNCCO4)c3=O)c(C)c2)n1", "note": "(racemic) [Example I-126, 2-(2,2-Difluoroethylamino)-6-[2-methyl-4-(6-methyl-2-pyridyl)phenyl]-8-(2-morpholin-2-ylethyl)pyrido[2,3-d]pyrimidin-7-one]", "values": [
      {"measurement": "Ki", "result": 0.0025, "unit": "µM"}
    ]},
    {"smiles": "CCNc1ncc2cc(-c3ccc(-c4cncc(C)n4)cc3Cl)c(=O)n(CCC3CCCN3)c2n1", "note": "(single isomer, unassigned) [Example I-20]", "values": [
      {"measurement": "Ki", "result": 0.0204, "unit": "µM"}
    ]},
    {"smiles": "CCNc1ncc2cc(-c3ccc(-c4cncc(C)n4)cc3Cl)c(=O)n(CCC3CNCCO3)c2n1", "note": "(single isomer, unassigned) [Example I-21]", "values": [
      {"measurement": "Ki", "result": 0.0098, "unit": "µM"}
    ]},
    {"smiles": "CCNc1ncc2cc(-c3ccc(-c4cncc(C)n4)cc3Cl)c(=O)n(CCOC3CCNC3)c2n1", "note": "(single isomer, unassigned) [Example I-51]", "values": [
      {"measurement": "Ki", "result": 0.0132, "unit": "µM"}
    ]},
    {"smiles": "CCNc1ncc2cc(-c3ccc(-c4cncc(C)n4)cc3Cl)c(=O)n(CC(C)OC3CNC3)c2n1", "note": "(single isomer, unassigned) [Example I-92]", "values": [
      {"measurement": "Ki", "result": 0.0476, "unit": "µM"}
    ]},
    {"smiles": "Cc1cncc(-c2ccc(-c3cc4cnc(NC(C)C)nc4n(CCC4CNC(=O)C4)c3=O)c(Cl)c2)n1", "note": "(single isomer, unassigned) [Example I-98, 6-[2-Chloro-4-(6-methylpyrazin-2-yl)phenyl]-2-(isopropylamino)-8-[2-(5-oxopyrrolidin-3-yl)ethyl]pyrido[2,3-d]pyrimidin-7-one]", "values": [
      {"measurement": "Ki", "result": 0.0218, "unit": "µM"}
    ]},
    {"smiles": "Cc1cncc(-c2ccc(-c3cc4cnc(NC(C)C)nc4n(CCC4CNC(=O)C4)c3=O)c(Cl)c2)n1", "note": "(single isomer, unassigned) [Example I-99, 6-[2-Chloro-4-(6-methylpyrazin-2-yl)phenyl]-2-(isopropylamino)-8-[2-(5-oxopyrrolidin-3-yl)ethyl]pyrido[2,3-d]pyrimidin-7-one]", "values": [
      {"measurement": "Ki", "result": 0.0191, "unit": "µM"}
    ]},
    {"smiles": "CNc1ncc2cc(-c3ccc(-c4cncc(C)n4)cc3Cl)c(=O)n(CCC3CCNC3=O)c2n1", "note": "(single isomer, unassigned) [Example I-102, 6-[2-Chloro-4-(6-methylpyrazin-2-yl)phenyl]-2-(methylamino)-8-[2-(2-oxopyrrolidin-3-yl)ethyl]pyrido[2,3-d]pyrimidin-7-one]", "values": [
      {"measurement": "Ki", "result": 0.0381, "unit": "µM"}
    ]},
    {"smiles": "CNc1ncc2cc(-c3ccc(-c4cncc(C)n4)cc3Cl)c(=O)n(CCC3CCNC3=O)c2n1", "note": "(single isomer, unassigned) [Example I-103, 6-[2-Chloro-4-(6-methylpyrazin-2-yl)phenyl]-2-(methylamino)-8-[2-(2-oxopyrrolidin-3-yl)ethyl]pyrido[2,3-d]pyrimidin-7-one]", "values": [
      {"measurement": "Ki", "result": 0.019, "unit": "µM"}
    ]},
    {"smiles": "CNc1ncc2cc(-c3ccc(-c4cccc(C)n4)cc3C)c(=O)n(CCC3CNCCO3)c2n1", "note": "(single isomer, unassigned) [Example I-104, 6-(2-Methyl-4-(6-methylpyridin-2-yl)phenyl)-2-(methylamino)-8-(2-(morpholin-2-yl)ethyl)pyrido[2,3-d]pyrimidin-7(8H)-one]", "values": [
      {"measurement": "Ki", "result": 0.0023, "unit": "µM"}
    ]},
    {"smiles": "CNc1ncc2cc(-c3ccc(-c4cccc(C)n4)cc3C)c(=O)n(CCC3CNCCO3)c2n1", "note": "(single isomer, unassigned) [Example I-110]", "values": [
      {"measurement": "Ki", "result": 0.003, "unit": "µM"}
    ]},
    {"smiles": "CCNc1ncc2cc(-c3ccc(-c4cccc(C)n4)cc3C)c(=O)n(CCC3CNCCO3)c2n1", "note": "(single isomer, unassigned) [Example I-112, 2-(Ethylamino)-6-(2-methyl-4-(6-methylpyridin-2-yl)phenyl)-8-(2-(morpholin-2-yl)ethyl)pyrido[2,3-d]pyrimidin-7(8H)-one]", "values": [
      {"measurement": "Ki", "result": 0.001, "unit": "µM"}
    ]},
    {"smiles": "Cc1cccc(-c2ccc(-c3cc4cnc(NC5COC5)nc4n(CCC4CNCCO4)c3=O)c(C)c2)n1", "note": "(single isomer, unassigned) [Example I-113, 6-(2-Methyl-4-(6-methylpyridin-2-yl)phenyl)-8-(2-(morpholin-2-yl)ethyl)-2-(oxetan-3-ylamino)pyrido[2,3-d]pyrimidin-7(8H)-one]", "values": [
      {"measurement": "Ki", "result": 0.0017, "unit": "µM"}
    ]},
    {"smiles": "Cc1cccc(-c2ccc(-c3cc4cnc(NC5COC5)nc4n(CCC4CNCCO4)c3=O)c(C)c2)n1", "note": "(single isomer, unassigned) [Example I-114, 6-(2-methyl-4-(6-methylpyridin-2-yl)phenyl)-8-(2-(morpholin-2-yl)ethyl)-2-(oxetan-3-ylamino)pyrido[2,3-d]pyrimidin-7(8H)-one]", "values": [
      {"measurement": "Ki", "result": 0.0007, "unit": "µM"}
    ]},
    {"smiles": "CCNc1ncc2cc(-c3ccc(-c4cccc(C)n4)cc3C)c(=O)n(CCC3CNCCO3)c2n1", "note": "(single isomer, unassigned) [Example I-115]", "values": [
      {"measurement": "Ki", "result": 0.0014, "unit": "µM"}
    ]},
    {"smiles": "CCNc1ncc2cc(-c3ccc(-c4cncc(C)n4)cc3Cl)c(=O)n(C(C)COC3CNC3)c2n1", "note": "(single isomer, unassigned) [Example I-118, 8-[2-(azetidin-3-yloxy)-1-methyl-ethyl]-6-[2-chloro-4-(6-methylpyrazin-2-yl)phenyl]-2-(ethylamino)pyrido[2,3-d]pyrimidin-7-one]", "values": [
      {"measurement": "Ki", "result": 0.0183, "unit": "µM"}
    ]},
    {"smiles": "CCNc1ncc2cc(-c3ccc(-c4cncc(C)n4)cc3Cl)c(=O)n(C(C)COC3CNC3)c2n1", "note": "(single isomer, unassigned) [Example I-119, 8-[2-(azetidin-3-yloxy)-1-methyl-ethyl]-6-[2-chloro-4-(6-methylpyrazin-2-yl)phenyl]-2-(ethylamino)pyrido[2,3-d]pyrimidin-7-one]", "values": [
      {"measurement": "Ki", "result": 0.077, "unit": "µM"}
    ]},
    {"smiles": "CNc1ncc2cc(-c3ccc(-c4cccc(C)n4)cc3Cl)c(=O)n(CCC3CNCCO3)c2n1", "note": "(single isomer, unassigned) [Example I-124, 6-(2-Chloro-4-(6-methylpyridin-2-yl)phenyl)-2-(methylamino)-8-(2-(morpholin-2-yl)ethyl)pyrido[2,3-d]pyrimidin-7(8H)-one]", "values": [
      {"measurement": "Ki", "result": 0.0015, "unit": "µM"}
    ]},
    {"smiles": "CNc1ncc2cc(-c3ccc(-c4cccc(C)n4)cc3Cl)c(=O)n(CCC3CNCCO3)c2n1", "note": "(single isomer, unassigned) [Example I-125, 6-(2-chloro-4-(6-methylpyridin-2-yl)phenyl)-2-(methylamino)-8-(2-(morpholin-2-yl)ethyl)pyrido[2,3-d]pyrimidin-7(8H)-one]", "values": [
      {"measurement": "Ki", "result": 0.0047, "unit": "µM"}
    ]},
    {"smiles": "CNc1ncc2cc(-c3ccc(-c4cccc(C)n4)cc3Cl)c(=O)n(CC3CNCCS3(=O)=O)c2n1", "note": "(single isomer, unassigned) [I-197 Isomer A, 6-[2-chloro-4-(6-methyl-2-pyridyl)phenyl]-8-[(1,1-dioxo-1 4-thiazinan-2-yl)methyl]-2-(methylamino)pyrido[2,3-d]pyrimidin-7-one]", "values": [
      {"measurement": "Ki", "result": 0.0161, "unit": "µM"}
    ]},
    {"smiles": "CNc1ncc2cc(-c3ccc(-c4cccc(C)n4)cc3Cl)c(=O)n(CC3CNCCS3(=O)=O)c2n1", "note": "(single isomer, unassigned) [I-197 Isomer B, 6-[2-chloro-4-(6-methyl-2-pyridyl)phenyl]-8-[(1,1-dioxo-1 4-thiazinan-2-yl)methyl]-2-(methylamino)pyrido[2,3-d]pyrimidin-7-one]", "values": [
      {"measurement": "Ki", "result": 0.0316, "unit": "µM"}
    ]},
    {"smiles": "CCNc1ncc2cc(-c3ccc(-c4cncc(C)n4)cc3Cl)c(=O)n(CCC(O)CO)c2n1", "note": "(stereo in doubt) [Example I-79, (R)-6-(2-Chloro-4-(6-methylpyrazin-2-yl)phenyl)-8-(3,4-dihydroxybutyl)-2-(ethylamino)pyrido[2,3-d]pyrimidin-7(8H)-one]", "values": [
      {"measurement": "Ki", "result": 0.0435, "unit": "µM"}
    ]},
    {"smiles": "CNc1ncc2cc(-c3ccc(-c4cncc(C)n4)cc3Cl)c(=O)n(CCCCN)c2n1", "note": "[Compound I-42, 8-(4-aminobutyl)-6-[2-chloro-4-(6-methylpyrazin-2-yl)phenyl]-2-(methylamino)pyrido[2,3-d]pyrimidin-7-one]", "values": [
      {"measurement": "Ki", "result": 0.0232, "unit": "µM"}
    ]},
    {"smiles": "CCNc1ncc2cc(-c3ccc(-c4cncc(C)n4)cc3Cl)c(=O)n(CCN3CCN(C4COC4)CC3)c2n1", "note": "[Example I-23, 6-(2-chloro-4-(6-methylpyrazin-2-yl)phenyl)-2-(ethylamino)-8-(2-(4-(oxetan-3-yl)piperazin-1-yl)ethyl)pyrido[2,3-d]pyrimidin-7(8H)-one]", "values": [
      {"measurement": "Ki", "result": 0.136, "unit": "µM"}
    ]},
    {"smiles": "CCNc1ncc2cc(-c3ccc(-c4cncc(C)n4)cc3Cl)c(=O)n(CC(O)CN)c2n1", "note": "(centres unmarked) [Example I-24, 8-(3-amino-2-hydroxy-propyl)-6-[2-chloro-4-(6-methylpyrazin-2-yl)phenyl]-2-(ethylamino)pyrido[2,3-d]pyrimidin-7-one]", "values": [
      {"measurement": "Ki", "result": 0.0273, "unit": "µM"}
    ]},
    {"smiles": "CCNCC(O)Cn1c(=O)c(-c2ccc(-c3cncc(C)n3)cc2Cl)cc2cnc(NCC)nc21", "note": "(centres unmarked) [Example I-25, 6-[2-chloro-4-(6-methylpyrazin-2-yl)phenyl]-2-(ethylamino)-8-[3-(ethylamino)-2-hydroxy-propyl]pyrido[2,3-d]pyrimidin-7-one]", "values": [
      {"measurement": "Ki", "result": 0.0671, "unit": "µM"}
    ]},
    {"smiles": "CCNc1ncc2cc(-c3ccc(-c4cncc(C)n4)cc3Cl)c(=O)n(CC(=O)N3CCOCC3)c2n1", "note": "[Example I-26, 6-[2-chloro-4-(6-methylpyrazin-2-yl)phenyl]-2-(ethylamino)-8-(2-morpholino-2-oxo-ethyl)pyrido[2,3-d]pyrimidin-7-one]", "values": [
      {"measurement": "Ki", "result": 0.137, "unit": "µM"}
    ]},
    {"smiles": "CCNc1ncc2cc(-c3ccc(-c4cncc(C)n4)cc3Cl)c(=O)n(CCN3CCN(C)CC3)c2n1", "note": "[Example I-27, 6-(2-Chloro-4-(6-methylpyrazin-2-yl)phenyl)-2-(ethylamino)-8-(2-(4-methylpiperazin-1-yl)ethyl)pyrido[2,3-d]pyrimidin-7(8H)-one]", "values": [
      {"measurement": "Ki", "result": 0.0476, "unit": "µM"}
    ]},
    {"smiles": "CCNc1ncc2cc(-c3ccc(-c4cncc(C)n4)cc3Cl)c(=O)n(C3CCN(C(=O)CN)C3)c2n1", "note": "(centres unmarked) [Example I-28, 8-(1-(2-Aminoacetyl)pyrrolidin-3-yl)-6-(2-chloro-4-(6-methylpyrazin-2-yl)phenyl)-2-(ethylamino)pyrido[2,3-d]pyrimidin-7(8H)-one]", "values": [
      {"measurement": "Ki", "result": 0.0257, "unit": "µM"}
    ]},
    {"smiles": "CCNc1ncc2cc(-c3ccc(-c4cncc(C)n4)cc3Cl)c(=O)n(C3CCN(C(=O)CN)CC3)c2n1", "note": "[Example I-29, 8-(1-(2-Aminoacetyl)piperidin-4-yl)-6-(2-chloro-4-(6-methylpyrazin-2-yl)phenyl)-2-(ethylamino)pyrido[2,3-d]pyrimidin-7(8H)-one]", "values": [
      {"measurement": "Ki", "result": 0.0171, "unit": "µM"}
    ]},
    {"smiles": "CCNc1ncc2cc(-c3ccc(-c4cccc(C)n4)cc3Cl)c(=O)n(CCOC3CNC3)c2n1", "note": "[Example I-30, 8-[2-(azetidin-3-yloxy)ethyl]-6-[2-chloro-4-(6-methyl-2-pyridyl)phenyl]-2-(ethylamino)pyrido[2,3-d]pyrimidin-7-one]", "values": [
      {"measurement": "Ki", "result": 0.0099, "unit": "µM"}
    ]},
    {"smiles": "Cc1cccc(-c2ccc(-c3cc4cnc(NC(C)C)nc4n(C[C@H]4CC[C@H](N)CC4)c3=O)c(Cl)c2)n1", "note": "[Example I-32, 8-[(4-aminocyclohexyl)methyl]-6-[2-chloro-4-(6-methyl-2-pyridyl)phenyl]-2-(isopropylamino)pyrido[2,3-d]pyrimidin-7-one]", "values": [
      {"measurement": "Ki", "result": 0.0005, "unit": "µM"}
    ]}
  ]
}
